Measurements as given in US9173892B2, “Acadesine derivatives, products and compositions including same, therapeutic uses thereof, and methods for synthesizing same” (Universite Nice Sophia Antipolis, priority 2011, dated 2015).
Counter-ions that a name gives are not always drawn. Values belong to the compound of their own block, whether it stands above or below them.

Columns and labels:
Assay type in all cases: cell-based, human
K562 cells [1] = assay: cell viability (XTT) of imatinib-sensitive K562 cells; conditions: for viability at 500 µM: 24 hours, read-out: percentage of viable cells; for viability at 500 µM / IC50: XTT; for IC50: dose-response 5, 10, 25 and 50 μM, Example 1 (Table 1 codes); for efficacy in dose-response experiment (number of viable cells): 5, 10, 25 and 50 μM, compounds effective at concentrations as low as 5 μM
Protocol: (§1) The K562 leukemic cell line is obtained from the pleural effusion of a patient with CML. This line is a good model for studying this disease. […] The K562 and ImaR cells are cultivated at 37° C. under 5% CO2 in an RPMI 1640 medium containing 5% fetal bovine serum and supplemented with sodium pyruvate and antibiotics (penicillin-streptomycin).
(§2) FIGS. 1 to 4 reflect the study of the cell viability.
(§3) After the addition of XTT reagent, the absorbance is measured at 490 nm.
as §3, §3
After adding XTT reagent, the absorbance is measured at 490 nm.

ImaR cells [2] = assay: cell viability (XTT) of imatinib-resistant ImaR cells; conditions: for efficacy in dose-response experiment (number of viable cells): 5, 10, 25 and 50 μM, compounds effective at concentrations as low as 5 μM; for viability at 500 µM / IC50: Homo sapiens, XTT; for viability at 500 µM: 24 hours, read-out: percentage of viable cells; for IC50: dose-response 5, 10, 25 and 50 μM, Example 1 (Table 1 codes)
Protocol: as §1, §2, §3, §3

K562 cells [3] = assay: flow cytometry analysis of the cell cycle, K562 cells; conditions: for proportion of cells in the G2/M phase: 24 hours, 82, 86, 112 at 2.5 μM, 15, 23, 191, 49 at 10 μM; for cells in phase G0/G1 / cells in the subG1 phase: 24 hours, imatinib 3 μM, 112 at 2.5 μM, 15, 23, 49 at 10 μM
Protocol: (§4) The x-axis of the graph of FIG. 9 corresponds to the quantity of DNA marked with propidium iodide while the y-axis corresponds to the number of cells. […] The nuclei are marked with propidium iodide, then the proportion of cells in the different phases of the cell cycle (subG1, G0/G1, S, G2/M) is determined.

ImaR cells [4] = assay: flow cytometry analysis of the cell cycle, ImaR cells; conditions: for proportion of cells in the G2/M phase: 24 hours, 82, 86, 112 at 2.5 μM, 15, 23, 191, 49 at 10 μM; for cells in phase G0/G1 / cells in the subG1 phase: 24 hours, imatinib 3 μM, 112 at 2.5 μM, 15, 23, 49 at 10 μM
Protocol: as §4, with “nucleii” for “nuclei”

caspase-3 [5] = assay: caspase-3 activity (Ac-DEVD-AMC) in ImaR cells; conditions: 24 hours, imatinib 3 μM, AICAR 1 mM, 112 at 2.5 μM, 15, 23, 49 at 10 μM
Protocol: (§5) The cells are lyzed and 10 μg of proteins are placed in the presence of Ac-DEVD-AMC in a 96-well plate. The fluorescence emission at 460 nm resulting from the release of AMC is then recorded.

caspase-9 [6] = assay: caspase-9 activity (Ac-LEHD-AMC) in K562 cells
Protocol: (§6) The cells are lyzed and the caspase-9 activities are measured using 10 μg of proteins and Ac-LEHD-AMC. The fluorescence emission at 460 nm resulting from the release of AMC is then recorded.

K562 cells [7] = assay: western blot of apoptosis and autophagy markers, K562 cells; conditions: for LC3 cleavage (LC3-I into LC3-II): 82, 86 at 2.5 μM, 15, 23, 191, 49 at 10 μM; for type of programmed cell death induced: conclusion of Example 1, K562 and ImaR cells; for expression of p62/SQSTM1: 82, 86, 112 at 2.5 μM, 15, 23, 191 at 10 μM
Protocol: (§7) The cells are lyzed and 35 μg of proteins are separated by SDS-PAGE (12 or 14% polyacrylamide gel) and analyzed by western blot with antibodies specific to each of the markers.

ImaR cells [8] = assay: western blot of apoptosis and autophagy markers, ImaR cells; conditions: 24 hours; for LC3 cleavage (LC3-I into LC3-II): AICAR 1 mM, 82, 86 at 2.5 μM, 15, 23, 191, 49 at 10 μM; for expression of p62/SQSTM1: AICAR 1 mM, 82, 86, 112 at 2.5 μM, 15, 23, 191 at 10 μM
Protocol: as §7

caspase-3 [9] = assay: caspase-3 activity (Ac-DEVD-AMC) in K562 cells; conditions: 24 hours, imatinib 3 μM, AICAR 1 mM, 112 at 2.5 μM, 15, 23, 49 at 10 μM
Protocol: as §5

mTOR pathway [10] = assay: western blot of 4E-BP1 phosphorylation (mTOR pathway), K562 cells; conditions: 24 hours, imatinib 3 μM, AICAR 1 mM, 82, 112 at 2.5 μM, 15, 23, 191 at 10 μM
Protocol: (§8) The cells are lyzed and 30 μg of proteins are separated by SDS-PAGE (13% polyacrylamide gel) and analyzed by western blot with an antibody specific to the 4E-BP1 protein. The delayed gel migration observed reflects the level of phosphorylation of 4E-BP1.

mTOR pathway [11] = assay: western blot of 4E-BP1 phosphorylation (mTOR pathway), ImaR cells; conditions: 24 hours, imatinib 3 μM, AICAR 1 mM, 82, 112 at 2.5 μM, 15, 23, 191 at 10 μM
Protocol: as §8

cathepsin-B [12] = assay: cathepsin-B activity (z-RR-AMC) in K562 cells; conditions: 24 hours, AICAR 1 mM, 82, 112 at 2.5 μM, 15, 23, 191 at 10 μM
Protocol: (§9) The cells are lyzed and 5 μg of proteins are placed in the presence of z-RR-AMC in a 96-well plate. The fluorescence emission at 460 nm resulting from the release of AMC is then recorded.

cathepsin-B [13] = assay: cathepsin-B activity (z-RR-AMC) in ImaR cells; conditions: 24 hours, AICAR 1 mM, 82, 112 at 2.5 μM, 15, 23, 191 at 10 μM
Protocol: as §9

caspase-9 [14] = assay: caspase-9 activity (Ac-LEHD-AMC) in ImaR cells; conditions: 24 hours, imatinib 3 μM, 112 2.5 μM, 15 and 23 10 μM
Protocol: as §6

[15] = Homo sapiens, K562, 24 or 48 hours
[16] = K562, 24 hours, AICAR 1 mM, compounds 2.5 or 10 μM
[17] = AICAR 1 mM, compounds 2.5 or 10 μM

IC50 (K562 cells [1]; [15]): ~2.5 µM
SMILES: CCOC(=O)c1nnn([C@@H]2O[C@H](COC(C)=O)[C@@H](OC(C)=O)[C@H]2OC(C)=O)c1-c1cccs1 [Compound 82, 1′-(4-ethoxycarbonyl-5-(2-thienyl)-[1,2,3]-triazol-1-yl)-2′,3′,5′-tri-O-acetyl-β-D-ribofuranose]
viability at 500 µM (K562 cells [1]; Homo sapiens, K562, 0.5 mM): < 10%
efficacy in dose-response experiment (number of viable cells) (K562 cells [1]; K562): particularly effective
efficacy in dose-response experiment (number of viable cells) (ImaR cells [2]): particularly effective
viability at 500 µM (ImaR cells [2]; 0.5 mM): < 10%
IC50 (ImaR cells [2]; 24 or 48 hours): ~2.5 µM
proportion of cells in the G2/M phase (K562 cells [3]): increase
proportion of cells in the G2/M phase (ImaR cells [4]): increase
expression of p62/SQSTM1 (K562 cells [7]; K562, 24 hours, AICAR 1 mM): increase in the expression
LC3 cleavage (LC3-I into LC3-II) (K562 cells [7]; K562, 24 hours, AICAR 1 mM): cleaved
type of programmed cell death induced (K562 cells [7]): autophagy alone
expression of p62/SQSTM1 (ImaR cells [8]): increase in the expression
LC3 cleavage (LC3-I into LC3-II) (ImaR cells [8]): cleaved
phosphorylation of 4E-BP1 (mTOR pathway [10]): total reduction
phosphorylation of 4E-BP1 (mTOR pathway [11]): total reduction
increase in the cathepsin-B activity (factor) (cathepsin-B [12]): around 2
increase in the cathepsin-B activity (factor) (cathepsin-B [13]): around 2

IC50 (K562 cells [1]; [15]): ~10 µM
SMILES: CCOC(=O)c1nnn(C2OC(COC(C)=O)C(OC(C)=O)C(OC(C)=O)C2OC(C)=O)c1I [Compound 191, 1′-(4-ethoxycarbonyl-5-iodo-[1,2,3]-triazol-1-yl)-2′,3′,4′,6′-tetra-O-acetyl-β-D-glucopyranose]
viability at 500 µM (K562 cells [1]; Homo sapiens, K562, 0.5 mM): < 10%
efficacy in dose-response experiment (number of viable cells) (K562 cells [1]; K562): particularly effective
efficacy in dose-response experiment (number of viable cells) (ImaR cells [2]): particularly effective
viability at 500 µM (ImaR cells [2]; 0.5 mM): < 10%
IC50 (ImaR cells [2]; 24 or 48 hours): ~10 µM
expression of p62/SQSTM1 (K562 cells [7]; K562, 24 hours, AICAR 1 mM): increase in the expression
LC3 cleavage (LC3-I into LC3-II) (K562 cells [7]; K562, 24 hours, AICAR 1 mM): cleaved
type of programmed cell death induced (K562 cells [7]): autophagy alone
expression of p62/SQSTM1 (ImaR cells [8]): increase in the expression
LC3 cleavage (LC3-I into LC3-II) (ImaR cells [8]): cleaved
increase in the cathepsin-B activity (factor) (cathepsin-B [12]): around 2
increase in the cathepsin-B activity (factor) (cathepsin-B [13]): around 2

More lines, now with the values behind:

SMILES: CCOC(=O)C#Cc1c(C(=O)OCC)nnn1[C@@H]1O[C@H](COC(C)=O)[C@@H](OC(C)=O)[C@H]1OC(C)=O [Compound 49, 1′-(4-ethoxycarbonyl-5-ethyl propiolate-[1,2,3]-triazol-1-yl)-2′,3′,5′-tri-O-acetyl-β-D-ribofuranose]
viability at 500 µM (K562 cells [1]; Homo sapiens, K562, 0.5 mM): < 10%
IC50 (K562 cells [1]; [15]): ~10 µM
efficacy in dose-response experiment (number of viable cells) (K562 cells [1]; K562): particularly effective
efficacy in dose-response experiment (number of viable cells) (ImaR cells [2]): particularly effective
viability at 500 µM (ImaR cells [2]; 0.5 mM): < 10%
IC50 (ImaR cells [2]; 24 or 48 hours): ~10 µM
proportion of cells in the G2/M phase (K562 cells [3]): increase
cells in phase G0/G1 (K562 cells [3]): reduction
cells in the subG1 phase (K562 cells [3]): very pronounced accumulation
proportion of cells in the G2/M phase (ImaR cells [4]): increase
cells in phase G0/G1 (ImaR cells [4]): reduction
cells in the subG1 phase (ImaR cells [4]): very pronounced accumulation
increase in the caspase-3 activity (factor with respect to the control) (caspase-3 [5]): increase
pathway relaying the induced apoptosis (caspase-9 [6]; conclusion of Example 1, K562 and ImaR cells): intrinsic pathway
LC3 cleavage (LC3-I into LC3-II) (K562 cells [7]; K562, 24 hours, AICAR 1 mM): cleaved
PARP cleavage (fragment at 85 kDa) (K562 cells [7]; K562, 24 hours, imatinib 3 μM, 112 at 2.5 μM, 15, 23, 49 at 10 μM): appearance of the characteristic cleavage fragment at 85 kDa
type of programmed cell death induced (K562 cells [7]): combination of the two types of mechanisms
LC3 cleavage (LC3-I into LC3-II) (ImaR cells [8]): cleaved
PARP cleavage (fragment at 85 kDa) (ImaR cells [8]; imatinib 3 μM, 112 at 2.5 μM, 15, 23, 49 at 10 μM): appearance of the characteristic cleavage fragment at 85 kDa

SMILES: NC(=O)c1ncn([C@@H]2O[C@H](CO)[C@@H](O)[C@H]2O)c1N [AICAR, 5-aminoimidazole-4-carboxamide-1-β-D-ribofuranoside, reference compound]
reduction in cell viability (K562 cells [1]; K562, 0.5 mM, 24 or 48 hours, Example 1): cell viability loss
efficacy in dose-response experiment (number of viable cells) (K562 cells [1]; K562): ineffective
reduction in cell viability (ImaR cells [2]; 0.5 mM, 24 or 48 hours, Example 1): cell viability loss
efficacy in dose-response experiment (number of viable cells) (ImaR cells [2]): ineffective
increase in the caspase-3 activity (factor with respect to the control) (caspase-3 [9]): incapable of inducing this activation
increase in the caspase-3 activity (factor with respect to the control) (caspase-3 [5]): incapable of inducing this activation
expression of p62/SQSTM1 (K562 cells [7]; K562, 24 hours, AICAR 1 mM): increase in the expression
LC3 cleavage (LC3-I into LC3-II) (K562 cells [7]; K562, 24 hours, AICAR 1 mM): cleaved
AMPK activation (level of phosphorylation) (K562 cells [7]; [16]): activated
mTOR pathway: phosphorylation of the ribosomal protein S6 (K562 cells [7]; [16]): massive dephosphorylation
expression of p62/SQSTM1 (ImaR cells [8]): increase in the expression
LC3 cleavage (LC3-I into LC3-II) (ImaR cells [8]): cleaved
AMPK activation (level of phosphorylation) (ImaR cells [8]; [17]): activated
mTOR pathway: phosphorylation of the ribosomal protein S6 (ImaR cells [8]; [17]): massive dephosphorylation
phosphorylation of 4E-BP1 (mTOR pathway [10]): total reduction
phosphorylation of 4E-BP1 (mTOR pathway [11]): total reduction
increase in the cathepsin-B activity (factor) (cathepsin-B [12]): increase
increase in the cathepsin-B activity (factor) (cathepsin-B [13]): increase

SMILES: Cc1ccc(NC(=O)c2ccc(CN3CCN(C)CC3)cc2)cc1Nc1nccc(-c2cccnc2)n1 [imatinib, imatinib mesylate, reference compound]
cytotoxicity at 1 µM (K562 cells [1]; Homo sapiens, K562, 48 h, read-out: cell viability loss): > 50%
cell viability (ImaR cells [2]; imatinib 1 μM, 48 hours): affected only slightly
cells in phase G0/G1 (K562 cells [3]): increase
cells in the subG1 phase (K562 cells [3]): small fraction of cells is also accumulated
cells in phase G0/G1 (ImaR cells [4]): not observed
cells in the subG1 phase (ImaR cells [4]): not observed
caspase-9 activity (caspase-9 [6]; K562, 24 hours, imatinib 3 μM, 112 2.5 μM, 15 and 23 10 μM): strong increase
caspase-9 activity (caspase-9 [14]): not the case
phosphorylation of 4E-BP1 (mTOR pathway [10]): totally inhibits
